This is an account of results in US10702506B2, “Small molecule inhibitors of pendrin ion exchange and pharmaceutical compositions” (THE REGENTS OF THE UNIVERSITY OF CALIFORNIA, priority 2016, dated 2020).

The target in the assay is T1, pendrin (Homo sapiens, UniProt O43511).
T1 sequence (O43511 1-780): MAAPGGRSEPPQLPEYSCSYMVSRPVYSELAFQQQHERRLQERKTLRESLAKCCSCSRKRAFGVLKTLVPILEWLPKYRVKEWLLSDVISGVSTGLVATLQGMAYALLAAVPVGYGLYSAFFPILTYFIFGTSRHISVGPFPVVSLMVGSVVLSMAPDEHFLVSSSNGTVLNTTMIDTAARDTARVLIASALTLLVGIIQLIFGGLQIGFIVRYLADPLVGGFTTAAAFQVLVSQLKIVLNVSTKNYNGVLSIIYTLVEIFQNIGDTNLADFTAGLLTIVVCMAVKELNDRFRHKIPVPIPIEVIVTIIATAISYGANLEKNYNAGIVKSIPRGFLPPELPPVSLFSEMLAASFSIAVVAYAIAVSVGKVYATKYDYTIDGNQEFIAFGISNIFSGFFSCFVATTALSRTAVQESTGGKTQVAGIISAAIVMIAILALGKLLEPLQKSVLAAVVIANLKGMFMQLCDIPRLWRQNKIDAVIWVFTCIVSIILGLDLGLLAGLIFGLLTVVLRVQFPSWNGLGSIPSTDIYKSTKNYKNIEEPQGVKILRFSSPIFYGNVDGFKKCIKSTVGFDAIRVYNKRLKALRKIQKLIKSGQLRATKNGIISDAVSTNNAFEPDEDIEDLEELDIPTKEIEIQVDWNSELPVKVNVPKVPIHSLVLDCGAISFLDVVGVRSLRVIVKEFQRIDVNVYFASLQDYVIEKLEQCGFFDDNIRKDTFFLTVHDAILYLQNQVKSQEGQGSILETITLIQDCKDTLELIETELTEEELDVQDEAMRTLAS
Put plainly: YFP (EYFP-HIF) fluorescence quenching assay of pendrin-mediated Cl− exchange (SCN−, I−, NO3−) in FRT cells; high-throughput screen. The note with it: for inhibition at 25 µM: FRT, read-out: Inh. (%), percentage inhibition of human pendrin. Type of assay: cell-based. The arrangement: expressed in transfected cells. On the procedure: Fischer rat thyroid (FRT) cells were cultured in Kaign's modified Ham's F12 medium supplemented with 10% FBS, 2 mM L-glutamine, 100 U/ml penicillin, […], […] myo-inositol and […] ascorbic acid. For high-throughput screening, FRT cells were stably transfected with EYFP-H148Q/I152L/F46L (EYFP-HIF; in pcDNA3.1/Hygro (+)), isolated using 0.25 mg/ml hygromycin B, and then transfected with pcDNA3.1 (+) encoding human pendrin with clonal cell lines selected using 0.5 mg/ml G418.
High-throughput screening was performed using a semi-automated screening platform (Beckman, Fullerton, Calif.) configured as described. FRT cells expressing human pendrin and EYFP-HIF were plated in 96-well black-walled, clear-bottom tissue culture plates (Corning, Corning, N.Y.) at a density of 20,000 cells/well, and cultured to confluence over 48 h. For screening, plates were washed twice with PBS (in mM: 137 NaCl, 2.7 KCl, 1.1 KH2PO4, 8.1 Na2HPO4, 0.9 CaCl2), 0.5 MgCl2) prior to addition of 100 μl PBS containing test compounds. Screening was done with ˜36,000 compounds from ChemDiv (San Diego, Calif.), TimTec (Newark, Del.), and Asinex (Winston-Salem, N.C.). After 10 min incubation with test compound, plates were transferred to a Tecan Infinite M1000 plate reader (Tecan, Morrisville, N.C.) for fluorescence assay of pendrin activity. The assay duration was 10 s with initial fluorescence intensity recorded for 2 s prior to addition of 100 μl of NaSCN-substituted PBS (137 mM NaCl replaced with NaSCN). All assay plates contained negative controls (DMSO). In some experiments Cl^− exchange for I^− or NO3^− was measured similarly using NaI and NaNO3-substituted PBS. Control experiments to measure basal ion transport rates were done in FRT cells expressing EYFP-HIF without pendrin.
FRT cells were chosen for screening due to their low intrinsic permeability to anions that are transported by pendrin. As depicted in FIGS. 1A and 2A, pendrin activity was assayed from the kinetics of the halide-sensitive fluorescent protein EYFP-HIF in response to addition of a SCN^−-containing solution to drive pendrin-mediated Cl^−/SCN^−. Pendrin inhibition reduces the rate of EYFP-HIF quenching. PDSinh-A01 land PDSinh-C01 decreased pendrin-mediated Cl^−/SCN^− and Cl^−/I^− exchange in a concentration-dependent manner, as measured by YFP fluorescence quenching. […] Because the only previously-described pendrin inhibitor is the weakly active compound niflumic acid, no positive control was included in the screening plates.

Structures are written as SMILES. Like-named read-outs stand apart in the source and are kept apart here.

A word on the inhibition: it is the percentage by which the read-out fell short of the control. Turning to `Cn1nc(COc2cccc(F)c2)c2c1CCN(C(=O)Nc1ccc(Cl)cc1)C2` [PDSinh-A01], the inhibition at 25 µM was roughly 100%. The IC50 (Cl−/I− exchange, read-out: IC50 for Cl−/I− exchange) is roughly 8 µM. Moreover, under “Cl−/NO3− exchange, read-out: IC50 for Cl−/NO3− exchange”, the IC50 is roughly 5 µM. Also, for the setting “Cl−/SCN− exchange, 10 μM added for indicated times”, the “time at which ~IC50 (half inhibition) was displayed, inhibition kinetics” value worked out at 5 min. In addition, under “Cl−/SCN− exchange, read-out: IC50 for Cl−/SCN− exchange”, the IC50 is roughly 9 µM. Also, the “reversibility of inhibition by washout” value (washout) is “reversible”.

Turning to `Cc1n[nH]c(-c2cc(S(=O)(=O)NC3CCCc4ccccc43)c(C)s2)c1C` (stereo not shown) [PDSinh-C01], the inhibition at 25 µM worked out at 83%.
